Results: paper PMC4316792, “The dehydrogenase region of the NADPH oxidase component Nox2 acts as a protein disulfide isomerase (PDI) resembling PDIA3 with a role in the binding of the activator protein p67^phox” (Frontiers in Chemistry, 2015)
“Also recorded” adds a separate entry of the source.

Assays:
Nox4 = system: Nox4; design: method as in Serrander et al., [2007]; conditions: ref Serrander et al., [2007]; cited from earlier work
[1] = system: NADPH oxidase in intact phagocytes / neutrophils; design: method as in 3 sources, one per row (each row's own in cited_ref): ref Cohen and Chovaniec, [1978]; Yamashita et al., [1984] ||| ref Le Cabec and Maridonneau-Parini, [1995] ||| ref Tsunawaki et al., [2004]; conditions: cited from earlier work
NADPH oxidase = system: NADPH oxidase; design: method as in 8 sources, one per row (each row's own in cited_ref): ref Shpungin et al., [1989] ||| ref Bellavite et al., [1983]; Gabig and Lefker, [1984] ||| ref Pick et al., [1987] ||| ref Le Cabec and Maridonneau-Parini, [1995] ||| ref Nishida et al., [2005] ||| ...; conditions: cited from earlier work
[2] = target: NADPH oxidase (macrophage membrane liposomes, cytochrome b558) (Cavia porcellus, UniProt H0UXC6); type: biochemical, guinea pig
PDIA1 = conditions: ref Xu et al., [2012]; cited from earlier work
Excerpt: Isomerization by PDI also requires the b′ domain (Ellgaard and Ruddock, [2005]) and, thus, an interact ...

PDI = system: PDI; design: method as in 2 sources, one per row (each row's own in cited_ref): ref Gallina et al., [2002]; Raturi et al., [2005] ||| ref Dickerhof et al., [2011]; conditions: ref Dickerhof et al., [2011]; cited from earlier work
PDIA3 = system: PDIA3; design: method as in Jasuja et al., [2012]; conditions: ref Jasuja et al., [2012]; cited from earlier work
p67^phox(1–212) = assay: Effect of H2O2 on binding of p67phox(1–212) to Nox2 peptide 24; conditions: p67^phox(1–212) 1.5 μM, H2O2 10 mM required (0.1, 1, 10 mM tested), 2 h at 4°C; three experiments (Figure 2C)
Experimental: This assay was used to assess the binding of p67^phox, in solution, to surface-attached synthetic Nox2 peptides. The procedure is a modified version of that described before (Morozov et al., [1998]; Dahan et al., [2002]). A brief description of the procedure is presented here. Synthetic Nox2 peptides, with a biotin tag at either the N- or C-terminus, were diluted to a concentration of 1 μM in PBS supplemented with 1% casein. 200 μl/well volumes were added to streptavidin-coated 96 well plates (BioBind Assembly, streptavidin-coated, Cat. No. 95029263, Thermo Fisher Scientific) and the plates incubated for 1 h at room temperature, the well contents being mixed on an orbital shaker. […] Bound peroxidase was quantified as described for the protein—protein binding assay.
Figure 2 Treatment of p67^phox with N-ethylmaleimide (NEM), diamide, or H2O2 reverses the enhanced binding to Nox2 peptides containing an intramolecular disulfide bond. p67^phox(1–526) (1.5 μM) was incubated with NEM (0.1 mM) (A) or diamide (5 mM) (B), for 1 h at room temperature. p67^phox(1–212) (1.5 μM) was exposed to H2O2 (0.1, 1, or 10 mM) for 2 h at 4°C (C). […] The binding of treated and untreated p67^phox, in solution, to surface-attached Nox2 peptide 24 (357–371), with an N-terminal biotin tag, was measured. […]

For `CN1C(=O)[C@]23CC4=CC=C[C@H](O)[C@H]4N2C(=O)[C@@]1(CO)SS3` [gliotoxin], the “effect on Nox4” value (Nox4) is listed as “did not affect”, the “inhibition of oxidase activation in neutrophils” value [1] is listed as “inhibit oxidase activation” and the “inhibition of oxidase activation in vitro” value (NADPH oxidase) is listed as “marked inhibitory effect; also recorded: inhibit oxidase activation”. For the same compound, the “IC50, NADPH oxidase activation” value [2] was “could not be determined” and the “inhibition of oxidase activation, in words” value (shortened to “inhibition … in words”) [2] was “poor inhibitor”.
For PACMA 31, the “specificity for PDIA1” value (PDIA1) is listed as “exquisite specificity” and the “inhibition … in words” value [2] is listed as “Lack of an inhibitory effect”.
For bacitracin A, the “inhibitory potency on PDI” value (PDI) is given as “low inhibitory potency”.
For `C[C@@H]1O[C@@H](OC[C@H]2O[C@@H](Oc3c(-c4ccc(O)c(O)c4)oc4cc(O)cc(O)c4c3=O)[C@H](O)[C@@H](O)[C@@H]2O)[C@H](O)[C@H](O)[C@H]1O` [rutin], the “inhibitory effect on PDIA3” value (PDIA3) is given as “lack an inhibitory effect” and the “inhibition … in words” value [2] is given as “Lack of an inhibitory effect”.
For `OO` [H2O2], the “effect of H2O2 treatment of p67phox on binding to peptide 24 in the disulfide form” value (p67^phox(1–212)) is listed as “markedly reduced” and the “effect of exposure of phagocyte membranes on oxidase assembly” value (NADPH oxidase; without effect on the assembled complex, ref Ostuni et al., [2010]) is listed as “inhibits oxidase assembly”.
